Test results published in patent US12479847B2 (DANA-FARBER CANCER INSTITUTE, INC., priority 2019, dated 2025).

Columns and labels:
human LRRK2 kinase = human LRRK2 kinase (Homo sapiens, UniProt Q5S007); details: LRRK2, ADP-Glo, ATP 10 μM, 60 minutes at 25° C.
Method: Assay kits from Promega™ Corporation were used according to instructions and adapted as outlined herein. […] The kinase reaction was performed with kinase reaction buffer (40 mM Tris base pH 7.4, 20 mM MgCl2, 0.5 mM dithiothreitol), 0.1 mg/ml bovine serum albumin, distilled H2O). […] In brief, the kinase reactions were started by addition of ATP to the kinase reaction mixture. The resulting mixture was incubated for 60 minutes at 25° C., and then stopped by adding 5 μl of ADP-Glo™ reagent. After incubation at room temperature in the dark for 40 minutes, 10 μl of kinase detection reagent was added per well, and the mixture was incubated for 10 minutes. […] Positive and negative controls were performed in 0.5% DMSO in the presence and absence of LRRK2 kinases. Curve fitting and data presentations were performed using GraphPad Prism version 5.0 (GraphPad Software, Inc.).

panel of 468 kinases [1] = target: T1, panel of 468 kinases (Homo sapiens, UniProt Q9H4B4); test: KINOMEscan (ScanMAX) kinase profiling; type: binding; details: PLK3; 1 μM; read-out: % control
T1 construct: purchased KINOMEscan (ScanMAX) service
T1 sequence (Q9H4B4 whole entry): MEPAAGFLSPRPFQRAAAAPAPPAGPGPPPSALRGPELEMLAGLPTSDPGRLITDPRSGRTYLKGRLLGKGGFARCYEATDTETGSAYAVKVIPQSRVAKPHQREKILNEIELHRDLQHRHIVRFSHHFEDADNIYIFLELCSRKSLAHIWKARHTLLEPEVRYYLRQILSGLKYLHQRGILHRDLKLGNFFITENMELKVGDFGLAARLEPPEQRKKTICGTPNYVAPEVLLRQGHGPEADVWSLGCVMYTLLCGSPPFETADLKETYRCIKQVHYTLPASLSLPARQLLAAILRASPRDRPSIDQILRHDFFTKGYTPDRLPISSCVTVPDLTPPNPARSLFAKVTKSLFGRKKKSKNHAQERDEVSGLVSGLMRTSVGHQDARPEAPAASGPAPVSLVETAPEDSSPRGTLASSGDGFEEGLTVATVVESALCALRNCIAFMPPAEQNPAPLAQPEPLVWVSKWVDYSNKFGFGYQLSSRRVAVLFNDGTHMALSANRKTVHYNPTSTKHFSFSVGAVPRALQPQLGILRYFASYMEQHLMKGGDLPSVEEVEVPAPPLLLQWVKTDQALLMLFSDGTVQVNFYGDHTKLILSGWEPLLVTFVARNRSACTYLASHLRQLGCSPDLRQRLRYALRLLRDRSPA
Method: (§1) The kinase selectivity of inventive compounds 12, 75, and 77 was evaluated by KINOMEscan®. KINOMEscan® (ScanMAX™) analysis was performed against a near comprehensive panel of 468 kinases. The control percentage (% control) for inventive compounds at 1 μM in DMSO was determined by Equation 1: % control=(inventive compound−positive control)/(negative control−positive control)×100%, Equation 1
(§2) wherein the positive control is a compound with a % control value of 0% relative light units (RLU), and the negative control (i.e., DMSO) has % control value of 100% RLU. The enzyme selectivity in the present invention is defined as follows: inventive compounds are considered active for an enzyme when the observed % control is less than 35% (<35%).

panel of 468 kinases [2] = target: T2, panel of 468 kinases (Homo sapiens, UniProt Q96GD4); test: KINOMEscan (ScanMAX) kinase profiling; type: binding; details: AURKB; 1 μM; read-out: % control
T2 construct: purchased KINOMEscan (ScanMAX) service
T2 sequence (Q96GD4 whole entry): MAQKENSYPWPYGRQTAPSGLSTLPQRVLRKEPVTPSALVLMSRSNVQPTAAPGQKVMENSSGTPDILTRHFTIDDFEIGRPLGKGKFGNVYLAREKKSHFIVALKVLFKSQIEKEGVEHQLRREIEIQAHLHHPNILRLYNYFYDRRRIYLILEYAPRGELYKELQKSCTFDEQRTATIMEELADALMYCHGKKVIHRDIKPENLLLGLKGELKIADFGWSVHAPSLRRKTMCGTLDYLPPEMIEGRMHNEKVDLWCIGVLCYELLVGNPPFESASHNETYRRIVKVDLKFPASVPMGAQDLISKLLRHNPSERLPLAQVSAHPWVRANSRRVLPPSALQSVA
Method: as §1, §2

panel of 468 kinases [3] = target: T3, panel of 468 kinases (Homo sapiens, UniProt P10721, L576P); test: KINOMEscan (ScanMAX) kinase profiling; type: binding; details: KIT(L576P); 1 μM; read-out: % control
T3 construct: purchased KINOMEscan (ScanMAX) service
Method: as §1, §2

panel of 468 kinases [4] = target: T4, panel of 468 kinases (Homo sapiens, UniProt Q9UIK4); test: KINOMEscan (ScanMAX) kinase profiling; type: binding; details: DAPK2; 1 μM; read-out: % control
T4 construct: purchased KINOMEscan (ScanMAX) service
T4 sequence (Q9UIK4 whole entry): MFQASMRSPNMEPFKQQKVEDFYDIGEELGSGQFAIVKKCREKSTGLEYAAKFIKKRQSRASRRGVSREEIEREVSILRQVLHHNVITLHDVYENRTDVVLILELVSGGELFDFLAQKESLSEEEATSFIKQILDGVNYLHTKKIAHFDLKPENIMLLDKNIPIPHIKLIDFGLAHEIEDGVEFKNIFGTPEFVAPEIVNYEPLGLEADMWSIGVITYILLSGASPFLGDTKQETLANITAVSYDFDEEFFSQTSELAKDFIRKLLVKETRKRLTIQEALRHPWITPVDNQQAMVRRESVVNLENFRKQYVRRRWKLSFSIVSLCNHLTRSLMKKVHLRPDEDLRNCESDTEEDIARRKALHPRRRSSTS
Method: as §1, §2

panel of 468 kinases [5] = target: T5, panel of 468 kinases (Homo sapiens, UniProt Q99755); test: KINOMEscan (ScanMAX) kinase profiling; type: binding; details: PIP5K1A; 1 μM; read-out: % control
T5 construct: purchased KINOMEscan (ScanMAX) service
Method: as §1, §2

panel of 468 kinases [6] = target: T6, panel of 468 kinases (Homo sapiens, UniProt Q00536); test: KINOMEscan (ScanMAX) kinase profiling; type: binding; details: PCTK1; 1 μM; read-out: % control
T6 construct: purchased KINOMEscan (ScanMAX) service
T6 sequence (Q00536 whole entry): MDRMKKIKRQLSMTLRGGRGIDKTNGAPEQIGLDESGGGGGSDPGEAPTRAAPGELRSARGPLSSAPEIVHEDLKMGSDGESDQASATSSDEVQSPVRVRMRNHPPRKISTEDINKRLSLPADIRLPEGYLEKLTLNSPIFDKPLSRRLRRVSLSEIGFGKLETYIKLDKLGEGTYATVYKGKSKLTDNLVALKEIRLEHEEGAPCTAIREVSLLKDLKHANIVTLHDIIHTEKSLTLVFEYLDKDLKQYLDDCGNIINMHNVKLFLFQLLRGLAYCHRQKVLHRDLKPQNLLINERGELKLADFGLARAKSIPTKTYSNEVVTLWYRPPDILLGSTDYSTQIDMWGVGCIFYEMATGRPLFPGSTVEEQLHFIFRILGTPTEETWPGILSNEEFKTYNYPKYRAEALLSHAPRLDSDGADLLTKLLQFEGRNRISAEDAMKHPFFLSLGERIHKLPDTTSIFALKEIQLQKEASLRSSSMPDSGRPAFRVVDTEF
Method: as §1, §2

panel of 468 kinases [7] = target: T7, panel of 468 kinases (Homo sapiens, UniProt P43403); test: KINOMEscan (ScanMAX) kinase profiling; type: binding; details: ZAP70; 1 μM; read-out: % control
T7 construct: purchased KINOMEscan (ScanMAX) service
T7 sequence (P43403 1-619): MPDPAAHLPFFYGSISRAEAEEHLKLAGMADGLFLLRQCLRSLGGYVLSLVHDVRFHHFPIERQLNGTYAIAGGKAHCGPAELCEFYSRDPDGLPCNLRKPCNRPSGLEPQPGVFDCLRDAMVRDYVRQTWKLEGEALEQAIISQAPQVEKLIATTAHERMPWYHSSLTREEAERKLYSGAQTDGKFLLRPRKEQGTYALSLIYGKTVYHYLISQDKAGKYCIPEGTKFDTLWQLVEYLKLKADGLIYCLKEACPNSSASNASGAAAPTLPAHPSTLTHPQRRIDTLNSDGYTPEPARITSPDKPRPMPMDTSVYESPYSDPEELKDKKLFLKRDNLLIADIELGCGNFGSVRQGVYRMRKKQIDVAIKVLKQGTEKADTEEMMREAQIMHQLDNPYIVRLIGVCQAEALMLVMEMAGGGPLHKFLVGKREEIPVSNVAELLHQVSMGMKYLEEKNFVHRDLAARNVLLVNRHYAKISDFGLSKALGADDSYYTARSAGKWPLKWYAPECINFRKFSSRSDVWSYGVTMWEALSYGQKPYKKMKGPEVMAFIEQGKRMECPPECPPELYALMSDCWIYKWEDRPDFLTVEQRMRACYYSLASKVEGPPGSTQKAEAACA
Method: as §1, §2

panel of 468 kinases [8] = target: T8, panel of 468 kinases (Homo sapiens, UniProt Q13188); test: KINOMEscan (ScanMAX) kinase profiling; type: binding; details: MST2; 1 μM; read-out: % control
T8 construct: purchased KINOMEscan (ScanMAX) service
T8 sequence (Q13188 1-491): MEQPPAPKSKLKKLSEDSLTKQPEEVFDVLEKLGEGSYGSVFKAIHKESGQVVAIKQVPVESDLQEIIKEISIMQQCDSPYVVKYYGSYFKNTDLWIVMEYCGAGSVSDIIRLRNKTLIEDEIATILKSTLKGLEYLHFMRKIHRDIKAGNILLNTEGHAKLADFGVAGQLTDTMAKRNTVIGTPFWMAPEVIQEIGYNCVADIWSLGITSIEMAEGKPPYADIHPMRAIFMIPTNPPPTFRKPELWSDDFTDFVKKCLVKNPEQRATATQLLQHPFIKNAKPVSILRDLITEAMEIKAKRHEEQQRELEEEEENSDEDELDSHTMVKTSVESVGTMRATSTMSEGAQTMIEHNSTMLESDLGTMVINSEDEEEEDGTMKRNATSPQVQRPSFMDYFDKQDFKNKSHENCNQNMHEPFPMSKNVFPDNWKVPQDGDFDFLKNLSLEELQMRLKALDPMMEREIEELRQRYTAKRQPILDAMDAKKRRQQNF
Method: as §1, §2

panel of 468 kinases [9] = target: T9, panel of 468 kinases (Homo sapiens, UniProt Q6P3R8); test: KINOMEscan (ScanMAX) kinase profiling; type: binding; details: NEK5; 1 μM; read-out: % control
T9 construct: purchased KINOMEscan (ScanMAX) service
T9 sequence (Q6P3R8 1-708): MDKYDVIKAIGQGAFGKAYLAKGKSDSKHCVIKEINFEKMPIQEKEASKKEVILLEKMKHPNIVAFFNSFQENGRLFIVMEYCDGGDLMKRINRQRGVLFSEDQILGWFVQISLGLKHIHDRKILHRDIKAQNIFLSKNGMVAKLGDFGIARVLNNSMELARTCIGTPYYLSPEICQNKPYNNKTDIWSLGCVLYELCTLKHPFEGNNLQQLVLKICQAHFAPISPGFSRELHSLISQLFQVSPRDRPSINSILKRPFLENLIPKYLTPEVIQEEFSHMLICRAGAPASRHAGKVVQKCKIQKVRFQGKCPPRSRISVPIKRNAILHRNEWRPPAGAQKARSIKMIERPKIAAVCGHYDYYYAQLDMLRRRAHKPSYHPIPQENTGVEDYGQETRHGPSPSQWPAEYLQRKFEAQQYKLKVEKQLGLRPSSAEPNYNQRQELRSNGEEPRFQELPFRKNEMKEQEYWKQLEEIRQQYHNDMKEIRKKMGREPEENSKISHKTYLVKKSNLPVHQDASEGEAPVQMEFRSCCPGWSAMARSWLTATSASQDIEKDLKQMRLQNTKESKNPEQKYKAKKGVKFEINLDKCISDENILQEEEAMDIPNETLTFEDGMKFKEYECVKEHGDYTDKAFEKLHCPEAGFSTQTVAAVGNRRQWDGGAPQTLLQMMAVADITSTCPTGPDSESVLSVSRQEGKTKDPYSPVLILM
Method: as §1, §2

panel of 468 kinases [10] = target: T10, panel of 468 kinases (Homo sapiens, UniProt Q8NI60); test: KINOMEscan (ScanMAX) kinase profiling; type: binding; details: ADCK3; 1 μM; read-out: % control
T10 construct: purchased KINOMEscan (ScanMAX) service
T10 sequence (Q8NI60 163-647): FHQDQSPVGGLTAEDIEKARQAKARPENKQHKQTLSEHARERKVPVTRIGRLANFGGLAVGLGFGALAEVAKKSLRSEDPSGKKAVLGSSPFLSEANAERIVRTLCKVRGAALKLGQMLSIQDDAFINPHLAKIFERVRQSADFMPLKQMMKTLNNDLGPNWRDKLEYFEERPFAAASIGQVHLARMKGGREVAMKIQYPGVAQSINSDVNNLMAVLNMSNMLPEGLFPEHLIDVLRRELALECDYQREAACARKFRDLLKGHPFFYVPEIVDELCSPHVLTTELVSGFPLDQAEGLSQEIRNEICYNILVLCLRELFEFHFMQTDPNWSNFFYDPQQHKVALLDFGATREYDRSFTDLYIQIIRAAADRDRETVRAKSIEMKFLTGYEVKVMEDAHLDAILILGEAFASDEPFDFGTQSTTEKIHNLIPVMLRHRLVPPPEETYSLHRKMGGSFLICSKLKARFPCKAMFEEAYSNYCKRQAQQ
Method: as §1, §2

Sequence of human LRRK2 kinase (Q5S007 whole entry): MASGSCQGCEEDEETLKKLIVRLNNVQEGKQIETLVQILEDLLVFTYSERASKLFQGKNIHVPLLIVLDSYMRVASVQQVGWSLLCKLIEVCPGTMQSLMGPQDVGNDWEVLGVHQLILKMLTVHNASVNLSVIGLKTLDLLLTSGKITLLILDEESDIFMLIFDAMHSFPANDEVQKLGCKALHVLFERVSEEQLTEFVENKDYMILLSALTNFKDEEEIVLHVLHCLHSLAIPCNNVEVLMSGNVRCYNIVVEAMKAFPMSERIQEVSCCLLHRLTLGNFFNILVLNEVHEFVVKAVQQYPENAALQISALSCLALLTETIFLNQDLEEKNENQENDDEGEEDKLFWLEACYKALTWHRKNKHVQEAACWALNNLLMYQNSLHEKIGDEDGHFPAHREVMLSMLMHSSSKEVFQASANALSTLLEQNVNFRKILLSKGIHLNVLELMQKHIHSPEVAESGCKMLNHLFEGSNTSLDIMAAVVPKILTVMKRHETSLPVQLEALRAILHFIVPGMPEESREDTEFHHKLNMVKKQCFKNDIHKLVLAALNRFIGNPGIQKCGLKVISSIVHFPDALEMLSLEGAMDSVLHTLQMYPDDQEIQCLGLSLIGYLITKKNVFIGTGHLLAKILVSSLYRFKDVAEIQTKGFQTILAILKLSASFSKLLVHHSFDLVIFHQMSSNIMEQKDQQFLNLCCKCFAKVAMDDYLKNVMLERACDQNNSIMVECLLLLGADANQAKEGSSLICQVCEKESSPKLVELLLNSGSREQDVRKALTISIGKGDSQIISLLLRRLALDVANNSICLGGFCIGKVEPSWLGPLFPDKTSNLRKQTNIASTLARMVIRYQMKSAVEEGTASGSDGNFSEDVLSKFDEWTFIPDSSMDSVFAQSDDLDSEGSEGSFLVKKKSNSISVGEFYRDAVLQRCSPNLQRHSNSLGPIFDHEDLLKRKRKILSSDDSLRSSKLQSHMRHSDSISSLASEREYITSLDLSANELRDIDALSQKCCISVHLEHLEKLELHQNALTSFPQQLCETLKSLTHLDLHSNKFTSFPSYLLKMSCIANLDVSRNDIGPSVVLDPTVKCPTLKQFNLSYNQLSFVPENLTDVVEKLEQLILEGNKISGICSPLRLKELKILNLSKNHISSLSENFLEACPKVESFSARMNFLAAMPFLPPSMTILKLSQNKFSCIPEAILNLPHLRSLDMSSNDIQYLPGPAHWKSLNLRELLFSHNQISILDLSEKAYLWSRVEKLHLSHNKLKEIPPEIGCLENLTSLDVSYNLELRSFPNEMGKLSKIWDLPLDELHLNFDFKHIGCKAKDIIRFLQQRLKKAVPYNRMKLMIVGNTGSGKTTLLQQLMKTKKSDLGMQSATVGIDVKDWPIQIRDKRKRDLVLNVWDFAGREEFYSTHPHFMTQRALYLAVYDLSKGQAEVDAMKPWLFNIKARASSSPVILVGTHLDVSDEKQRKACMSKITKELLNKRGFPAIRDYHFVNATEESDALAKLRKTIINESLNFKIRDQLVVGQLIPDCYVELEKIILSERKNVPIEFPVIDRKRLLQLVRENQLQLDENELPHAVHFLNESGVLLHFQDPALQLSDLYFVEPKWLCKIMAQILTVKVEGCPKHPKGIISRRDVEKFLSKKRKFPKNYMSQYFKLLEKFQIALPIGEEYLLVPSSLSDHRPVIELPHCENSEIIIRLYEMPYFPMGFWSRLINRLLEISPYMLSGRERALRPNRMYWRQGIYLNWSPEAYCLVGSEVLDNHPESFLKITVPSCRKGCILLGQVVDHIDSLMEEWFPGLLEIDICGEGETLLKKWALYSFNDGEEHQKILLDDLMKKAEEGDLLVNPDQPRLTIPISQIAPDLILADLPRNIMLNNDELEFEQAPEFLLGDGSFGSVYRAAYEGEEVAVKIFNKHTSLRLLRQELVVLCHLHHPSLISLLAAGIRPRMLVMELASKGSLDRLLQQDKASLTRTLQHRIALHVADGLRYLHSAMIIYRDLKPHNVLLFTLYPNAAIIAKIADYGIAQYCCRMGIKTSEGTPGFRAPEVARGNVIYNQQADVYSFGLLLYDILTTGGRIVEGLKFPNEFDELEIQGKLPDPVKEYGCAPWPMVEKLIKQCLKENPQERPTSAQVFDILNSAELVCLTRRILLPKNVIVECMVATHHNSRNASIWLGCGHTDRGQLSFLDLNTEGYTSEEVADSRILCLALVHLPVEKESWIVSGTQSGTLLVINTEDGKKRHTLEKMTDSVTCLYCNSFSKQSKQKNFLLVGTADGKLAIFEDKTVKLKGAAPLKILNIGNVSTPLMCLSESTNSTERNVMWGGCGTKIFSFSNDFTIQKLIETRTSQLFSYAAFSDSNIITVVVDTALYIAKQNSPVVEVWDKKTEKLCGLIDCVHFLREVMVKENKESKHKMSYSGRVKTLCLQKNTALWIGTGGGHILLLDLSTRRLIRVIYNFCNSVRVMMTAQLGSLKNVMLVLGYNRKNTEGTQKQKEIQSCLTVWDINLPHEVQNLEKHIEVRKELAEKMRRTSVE

Row | SMILES | IC50 (human LRRK2 kinase) [nM] | remaining binding at 1 µM (panel of 468 kinases [1]) [%] | remaining binding at 1 µM (panel of 468 kinases [2]) [%] | remaining binding at 1 µM (panel of 468 kinases [3]) [%] | remaining binding at 1 µM (panel of 468 kinases [4]) [%] | remaining binding at 1 µM (panel of 468 kinases [5]) [%] | remaining binding at 1 µM (panel of 468 kinases [6]) [%] | remaining binding at 1 µM (panel of 468 kinases [7]) [%] | remaining binding at 1 µM (panel of 468 kinases [8]) [%] | remaining binding at 1 µM (panel of 468 kinases [9]) [%] | remaining binding at 1 µM (panel of 468 kinases [10]) [%]
1 | CNc1nc(Nc2ccc(C(=O)N3CCC(N4CCOCC4)CC3)c3c2OCO3)nc2[nH]cc(Cl)c12 [Compound 75, (7-((5-chloro-4-(methylamino)-7H-pyrrolo[2,3-d]pyrimidin-2-yl)amino)benzo[d][1,3]dioxol-4-yl)(4-morpholinopiperidin-1-yl)methanone] | < 10 | 100 | 57 | 36 | 28 | 34 | 60 | 22 | 45 | 97 | 100
2 | CNc1nc(Nc2ccc(S(=O)(=O)N3CCC(N4CCOCC4)CC3)cc2OC)nc2[nH]cc(Cl)c12 [Compound 12, 5-chloro-N2-(2-methoxy-4-((4-morpholinopiperidin-1-yl)sulfonyl)phenyl)-N4-methyl-7H-pyrrolo[2,3-d]pyrimidine-2,4-diamine] | < 10 | 100 | 73 | 97 | 29 | 100 | 64 | 65 | 100 | 100 | 100
3 | CNc1nc(Nc2ccc(P3(=O)CCN(C4CCOCC4)CC3)cc2OC)nc2[nH]cc(Cl)c12 [Compound 77, 4-(4-((5-chloro-4-(methylamino)-7H-pyrrolo[2,3-d]pyrimidin-2-yl)amino)-3-methoxyphenyl)-1-(tetrahydro-2H-pyran-4-yl)-1,4-azaphosphinane 4-oxide] | < 10 | 96 | 74 | 100 | 10 | 100 | 84 | 37 | 100 | 98 | 100
